Measurements reported in US11178871B2, “Herbicidal pyrimidine compounds” (BASF SE, priority 2016, dated 2021).

Experiments:
Type in all cases: in vivo
Polygonum convolvulus = assay: greenhouse test, post-emergence treatment, POLCO; conditions: 500 g/ha
Source text: (§1) The culture containers used were plastic flowerpots containing loamy sand with approximately 3.0% of humus as the substrate. The seeds of the test plants were sown separately for each species.
(§2) For the post-emergence treatment, the test plants were first grown to a height of 3 to 15 cm, depending on the plant habit, and only then treated with the active ingredients which had been suspended or emulsified in water. For this purpose, the test plants were either sown directly and grown in the same containers, or they were first grown separately as seedlings and transplanted into the test containers a few days prior to treatment.
(§3) Depending on the species, the plants were kept at 10-25° C. or 20-35° C., respectively.
(§4) The test period extended over 2 to 4 weeks. During this time, the plants were tended, and their response to the individual treatments was evaluated.
(§5) Evaluation was carried out using a scale from 0 to 100. 100 means no emergence of the plants, or complete destruction of at least the aerial moieties, and 0 means no damage, or normal course of growth. A good herbicidal activity is given at values of at least 70 and a very good herbicidal activity is given at values of at least 85.
(§6) The plants used in the greenhouse experiments were of the following species: […]

Apera spica-venti [1] = assay: greenhouse test, pre-emergence treatment, APESV
Method in brief: (§7)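 Damage scored visually on a 0-100 scale (100 = no emergence or complete destruction of aerial parts, 0 = normal growth) after 2 to 4 weeks. Treatment was applied pre-emergence as an aqueous suspension or emulsion immediately after sowing in loamy sand (approx. 3.0% humus).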

Poa annua [2] = assay: greenhouse test, post-emergence treatment, POAAN
Source text: as §1, §2, §3, §4, §5, §6

Alopecurus myosuroides [3] = assay: greenhouse test, post-emergence treatment, ALOMY; conditions: post-emergence
Method in brief: (§8)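 Plants grown in loamy sand (~3.0% humus) to 3–15 cm height, then sprayed post-emergence with active ingredient suspended or emulsified in water. Kept at 10–25 °C or 20–35 °C by species for 2–4 weeks; damage scored visually 0–100 (100 = complete destruction of aerial parts, 0 = normal growth).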

Echinocloa crus-galli [4] = assay: greenhouse test, pre-emergence treatment, ECHCG
Method in brief: as §7

Poa annua [5] = assay: greenhouse test, pre-emergence treatment, POAAN
Method in brief: as §7

Lolium multiflorum = assay: greenhouse test, post-emergence treatment, LOLMU
Source text: as §1, §2, §3, §4, §5, §6

Avena fatua = assay: greenhouse test, post-emergence treatment, AVEFA
Method in brief: as §8

Abutilon theophrasti [6] = assay: greenhouse test, post-emergence treatment, ABUTH; conditions: 2000 g/ha
Method in brief: as §8

Setaria viridis = assay: greenhouse test, pre-emergence treatment, SETVI; conditions: 2000 g/ha
Source text: as §1
(§9) For the pre-emergence treatment, the active ingredients, which had been suspended or emulsified in water, were applied directly after sowing by means of finely distributing nozzles. The containers were irrigated gently to promote germination and growth and subsequently covered with transparent plastic hoods until the plants had rooted. This cover caused uniform germination of the test plants, unless this had been impaired by the active ingredients.
as §3, §4, §5, §6

Amaranthus retroflexus = assay: greenhouse test, post-emergence treatment, AMARE
Method in brief: as §8

Echinocloa crus-galli [7] = assay: greenhouse test, post-emergence treatment, ECHCG; conditions: post-emergence
Method in brief: as §8

Agrostis stolonifera = assay: greenhouse test, post-emergence treatment, AGSST
Source text: as §1, §2, §3, §4, §5, §6

Abutilon theophrasti [8] = assay: greenhouse test, pre-emergence treatment, ABUTH; conditions: 2000 g/ha
Source text: as §1, §9, §3, §4, §5, §6

Chenopodium album = assay: greenhouse test, post-emergence treatment, CHEAL; conditions: 250 g/ha
Source text: as §1, §2, §3, §4, §5, §6

Apera spica-venti [9] = assay: greenhouse test, post-emergence treatment, APESV; conditions: post-emergence, 2000 g/ha
Source text: as §1, §2, §3, §4, §5, §6

Alopecurus myosuroides [10] = assay: greenhouse test, pre-emergence treatment, ALOMY; conditions: 2000 g/ha
Source text: as §1, §9, §3, §4, §5, §6

Matricaria inodora = assay: greenhouse test, pre-emergence treatment, MATIN; conditions: 2000 g/ha
Source text: as §1, §9, §3, §4, §5, §6

Cc1ncc(-c2nc(C3CC3)ncc2-c2ccccc2Cl)o1 [Ex. 244]
herbicidal activity (Polygonum convolvulus): good (A good herbicidal activity is given at values of at least 70)
herbicidal activity (Apera spica-venti [1]; 500 g/ha): very good (a very good herbicidal activity is given at values of at least 85)
herbicidal activity (Poa annua [2]; 500 g/ha): good (A good herbicidal activity is given at values of at least 70)
herbicidal activity (Alopecurus myosuroides [3]; 500 g/ha): good (A good herbicidal activity is given at values of at least 70)
herbicidal activity (Echinocloa crus-galli [4]; 500 g/ha): very good (a very good herbicidal activity is given at values of at least 85)
herbicidal activity (Poa annua [5]; 500 g/ha): very good (a very good herbicidal activity is given at values of at least 85)

Cc1nc(C)c(-c2nc(C3CC3)ncc2-c2cc(C(F)F)ccc2Cl)o1 [Ex. 291]
herbicidal activity (Lolium multiflorum; 500 g/ha): good (A good herbicidal activity is given at values of at least 70)
herbicidal activity (Apera spica-venti [1]; 500 g/ha): very good (a very good herbicidal activity is given at values of at least 85)
herbicidal activity (Alopecurus myosuroides [3]; 500 g/ha): good (A good herbicidal activity is given at values of at least 70)
herbicidal activity (Avena fatua; 500 g/ha): good (A good herbicidal activity is given at values of at least 70)
herbicidal activity (Echinocloa crus-galli [4]; 500 g/ha): very good (a very good herbicidal activity is given at values of at least 85)
herbicidal activity (Poa annua [5]; 500 g/ha): very good (a very good herbicidal activity is given at values of at least 85)

Brc1ccccc1-c1cnc(C2CC2)nc1C1CC1 [Ex. 39]
herbicidal activity (Abutilon theophrasti [6]): very good (a very good herbicidal activity is given at values of at least 85)
herbicidal activity (Setaria viridis): very good (a very good herbicidal activity is given at values of at least 85)
herbicidal activity (Amaranthus retroflexus; 2000 g/ha): very good (a very good herbicidal activity is given at values of at least 85)

C=C(C(=O)OC)c1nc(C2CC2)ncc1-c1ccccc1Cl [Ex. 221]
herbicidal activity (Abutilon theophrasti [6]): very good (a very good herbicidal activity is given at values of at least 85)
herbicidal activity (Echinocloa crus-galli [7]; 2000 g/ha): very good (a very good herbicidal activity is given at values of at least 85)
herbicidal activity (Apera spica-venti [1]; 2000 g/ha): very good (a very good herbicidal activity is given at values of at least 85)
herbicidal activity (Agrostis stolonifera; 2000 g/ha): very good (a very good herbicidal activity is given at values of at least 85)
herbicidal activity (Echinocloa crus-galli [4]; 2000 g/ha): very good (a very good herbicidal activity is given at values of at least 85)
herbicidal activity (Poa annua [5]; 2000 g/ha): very good (a very good herbicidal activity is given at values of at least 85)

Clc1ccccc1-c1cnc(C2CC2)nc1-c1nc2ccccc2[nH]1 [Ex. 297]
herbicidal activity (Echinocloa crus-galli [7]; 2000 g/ha): very good (a very good herbicidal activity is given at values of at least 85)
herbicidal activity (Abutilon theophrasti [8]): good (A good herbicidal activity is given at values of at least 70)
herbicidal activity (Apera spica-venti [1]; 2000 g/ha): very good (a very good herbicidal activity is given at values of at least 85)
herbicidal activity (Alopecurus myosuroides [3]; 2000 g/ha): very good (a very good herbicidal activity is given at values of at least 85)
herbicidal activity (Avena fatua; 2000 g/ha): very good (a very good herbicidal activity is given at values of at least 85)
herbicidal activity (Echinocloa crus-galli [4]; 2000 g/ha): good (A good herbicidal activity is given at values of at least 70)

Cc1nc(C)c(-c2nc(C3CC3)ncc2-c2ccccc2Br)o1 [Ex. 265]
herbicidal activity (Amaranthus retroflexus; 250 g/ha): very good (a very good herbicidal activity is given at values of at least 85)
herbicidal activity (Alopecurus myosuroides [3]; 250 g/ha): good (A good herbicidal activity is given at values of at least 70)
herbicidal activity (Chenopodium album): good (A good herbicidal activity is given at values of at least 70)

CC(O)Cc1nc(C2CC2)ncc1-c1ccccc1Cl (centres unmarked) [Ex. 105]
herbicidal activity (Apera spica-venti [9]): very good (a very good herbicidal activity is given at values of at least 85)
herbicidal activity (Echinocloa crus-galli [7]; 2000 g/ha): very good (a very good herbicidal activity is given at values of at least 85)
herbicidal activity (Echinocloa crus-galli [4]; 2000 g/ha): very good (a very good herbicidal activity is given at values of at least 85)
herbicidal activity (Alopecurus myosuroides [10]): very good (a very good herbicidal activity is given at values of at least 85)

Cc1ccc(-c2nc(C3CC3)ncc2-c2ccccc2Br)o1 [Ex. 121]
herbicidal activity (Lolium multiflorum; 500 g/ha): very good (a very good herbicidal activity is given at values of at least 85)
herbicidal activity (Echinocloa crus-galli [7]; 500 g/ha): very good (a very good herbicidal activity is given at values of at least 85)
herbicidal activity (Polygonum convolvulus): very good (a very good herbicidal activity is given at values of at least 85)
herbicidal activity (Alopecurus myosuroides [3]; 500 g/ha): very good (a very good herbicidal activity is given at values of at least 85)

Cc1ocnc1-c1nc(C2CC2)ncc1-c1ccccc1Cl [Ex. 267]
herbicidal activity (Abutilon theophrasti [6]): very good (a very good herbicidal activity is given at values of at least 85)
herbicidal activity (Echinocloa crus-galli [7]; 2000 g/ha): very good (a very good herbicidal activity is given at values of at least 85)
herbicidal activity (Poa annua [2]; 2000 g/ha): very good (a very good herbicidal activity is given at values of at least 85)
herbicidal activity (Echinocloa crus-galli [4]; 2000 g/ha): very good (a very good herbicidal activity is given at values of at least 85)
herbicidal activity (Poa annua [5]; 2000 g/ha): very good (a very good herbicidal activity is given at values of at least 85)

OCc1nc(C2CC2)ncc1-c1cc(F)ccc1Cl [Ex. 14]
herbicidal activity (Lolium multiflorum; 250 g/ha): good (A good herbicidal activity is given at values of at least 70)
herbicidal activity (Apera spica-venti [1]; 250 g/ha): very good (a very good herbicidal activity is given at values of at least 85)

OC(c1nc(Cl)ccc1Cl)C(O)c1nc(C2CC2)ncc1-c1ccccc1Cl (centres unmarked) [Ex. 259]
herbicidal activity (Echinocloa crus-galli [7]; 2000 g/ha): very good (a very good herbicidal activity is given at values of at least 85)
herbicidal activity (Apera spica-venti [1]; 2000 g/ha): good (A good herbicidal activity is given at values of at least 70)
herbicidal activity (Poa annua [2]; 2000 g/ha): very good (a very good herbicidal activity is given at values of at least 85)
herbicidal activity (Alopecurus myosuroides [3]; 2000 g/ha): very good (a very good herbicidal activity is given at values of at least 85)
herbicidal activity (Echinocloa crus-galli [4]; 2000 g/ha): good (A good herbicidal activity is given at values of at least 70)

OC(c1cccs1)C(O)c1nc(C2CC2)ncc1-c1ccccc1Cl (centres unmarked) [Ex. 247]
herbicidal activity (Apera spica-venti [1]; 500 g/ha): very good (a very good herbicidal activity is given at values of at least 85)
herbicidal activity (Amaranthus retroflexus; 500 g/ha): very good (a very good herbicidal activity is given at values of at least 85)
herbicidal activity (Agrostis stolonifera; 500 g/ha): very good (a very good herbicidal activity is given at values of at least 85)
herbicidal activity (Alopecurus myosuroides [3]; 500 g/ha): very good (a very good herbicidal activity is given at values of at least 85)
herbicidal activity (Echinocloa crus-galli [4]; 500 g/ha): very good (a very good herbicidal activity is given at values of at least 85)
herbicidal activity (Poa annua [5]; 500 g/ha): very good (a very good herbicidal activity is given at values of at least 85)

Clc1ccccc1-c1cnc(C2CC2)nc1-c1cnco1 [Ex. 260]
herbicidal activity (Echinocloa crus-galli [7]; 2000 g/ha): good (A good herbicidal activity is given at values of at least 70)
herbicidal activity (Matricaria inodora): very good (a very good herbicidal activity is given at values of at least 85)
herbicidal activity (Apera spica-venti [1]; 2000 g/ha): good (A good herbicidal activity is given at values of at least 70)
herbicidal activity (Alopecurus myosuroides [3]; 2000 g/ha): very good (a very good herbicidal activity is given at values of at least 85)
herbicidal activity (Avena fatua; 2000 g/ha): good (A good herbicidal activity is given at values of at least 70)
herbicidal activity (Echinocloa crus-galli [4]; 2000 g/ha): very good (a very good herbicidal activity is given at values of at least 85)
